Where a name gives a salt, the structure may show the parent alone.

Test [1] deals with hydroxyproline (a specific marker for collagen) in mouse lung. The test can be described thus: Bleomycin induced lung fibrosis model: hydroxyproline assay. The class given is in vivo. The conditions noted are these: relative to levels induced by Bleomycin in vehicle treated animals, *p < 0.05. The procedure: (§1) Preclinical pulmonary fibrosis can be induced by single instillation of Bleomycin to the mouse lung. A 15-day Bleomycin protocol was developed to evaluate compounds of the invention in vivo for their ability to inhibit TGFβ secretion and collagen deposition in the mouse lung. On the day before Bleomycin instillation, compounds were administrated to mice based on the appropriate route and frequency. On the study initiation day, under Ketamine (80 mg/kg) and Xylazine (10 mg/kg) anesthesia, all the animals were cannulated oro-tracheally and 50 μL of normal saline (Sham control) or 0.03 U Bleomycin in 50 μL saline (all groups except sham control group) was delivered into the trachea. Compounds were dosed daily until the end of study on Day 15. On termination day, animals were euthanized using CO2 inhalation. The right lung was collected, washed in normal saline, weighed, flash frozen in liquid nitrogen and stored at −80° C. for hydroxyproline (a specific marker for collagen) and TGFβ assays.
(§2) Flash frozen whole right lung tissues were homogenized in 500 μL of RIPA buffer containing PMSF and protease inhibitor cocktail using zirconium oxide bead based homogenizer (Bullet blender Gold, NextAdvance, Germany). Briefly, tissues were spun in the homogenizer at 4° C. for three cycles of 10 minutes each at 1000 g. A complete uniform tissue mixture was obtained using this procedure. The homogenate volume was made up to 1.5 mL by adding 1 mL of RIPA buffer containing PMSF and protease inhibitor cocktail to 500 μL of homogenate. The homogenate was stored as aliquots of 100-500 μL each at −80° C.
Acid hydrolysis: 500 μL of the homogenized lung parenchyma was transferred to glass vials, and an equal volume of 12N HCl was added (final concentration of HCl: 6N). The vials were purged with nitrogen gas, sealed and incubated overnight (16 h) under anoxic conditions at 110° C.
Post incubation procedures: 35 μL of the sample from each tube or standard (prepared by serial dilution of hydroxyproline stock solution) was added onto a 96 well plate and the assay was performed as per the kit protocol (Quickzyme Biosciences: Cat #: QZBHYPR05). After the final color development, absorbance was measured by colorimetric analysis at 570 nm (using Thermoscan spectrum (Plate Reader) and results were recorded. Standard curve (linear graph) was generated by using hydroxyproline standards provided in the Quickzyme kit.

Test [2] concerns the target T1, furin (endogenous protease) in U20S cells (Homo sapiens, UniProt P09958).
T1 construct: the endogenous protease cleaves GFP; endogenous in cells; host or cells: U2OS cells transduced with a BacMam reporter
Put plainly: Furin cell-based assay (image-based, Golgi-targeted GFP with BMP10 furin/PCSK cleavage site).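 Further: Read-out is mean GFP fluorescence of Golgi puncta per cell by high-content imaging, retained when furin inhibited, over an eleven-point 0.00017–10 µM series, four-parameter fit.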 As to conditions: 24-hour incubation, read-out: furin golgi cell pXC50 (converted).
Protocol: This assay uses an image-based platform to evaluate the intracellular activity of compounds of the invention. Reactions were performed in black 384-well, tissue culture-treated, clear bottom plates (Greiner). Compounds under analysis were dissolved in DMSO (1.0 mM) and serially diluted 1 to 3 with DMSO through eleven dilutions. This creates a final compound concentration range from 0.00017 to 10 μM, and 0.1 μL of each concentration was transferred to the corresponding well of the assay plate. Assays were initiated by the addition of U20S cells simultaneously transduced with a BacMam-delivered construct containing a Golgi-targeting sequence followed by a 12-amino acid furin/PCSK cleavage site from Bone Morphogenic Protein 10 (BMP10) and then GFP at the C terminus. […] Briefly, frozen cells are thawed in assay media (Dulbecco's Modified Eagles Medium Nutritional Mixture F-12 (Ham) without phenol red containing 5% FBS) and diluted to deliver 6000 cells/well (50 μL) to the plate using a Multidrop Combi (Thermo).
After a 24-hour incubation period at 37° C., the cells are stained with Cell Mask Deep Red, fixed in paraformaldehyde and the nuclei stained using Ho33342. The Golgi-targeted GFP forms bright punctate clusters within the cell. In the absence of a furin inhibitor, the endogenous protease cleaves GFP from its N-acetylgalactosaminyltransferase-2 Golgi tether, releasing GFP into the Golgi lumen where fluorescence is diluted below the threshold of assay sensitivity. […] Cellular GFP intensity is determined by image-based acquisition (Incell 2200, Perkin Elmer) at 40× magnification with 4 fields measured per well. Multi-scale tophat segmentation is used to identify the GFP-tagged puncta and to quantitate the average fluorescence of all puncta on a per cell basis. Cellular toxicity is determined in parallel.
Data were analyzed using AbaseXE 7.3, utilizing a four-parameter curve fit equation. The following values were used to define limits and/or constraints for each of the four parameters: • Minimum—limit −10 to 10 • Maximum—90 to 110 • Slope—limit 0.5 to 2.0 • pXC50 confidence interval—10
Raw counts obtained from the respective plate reader (Perkin Elmer) were captured for data analysis. Curves were generated using the equation: Y=A+[(B−A)/(1+(10^C/x)^D)] • where: A=minimum response • B=maximum response • C=log 10*XC50 • D=slope factor • x=log 10 compound concentration [M]
The results were recorded as pXC50 values (−C in the above equation)

For test [3], the system named is TGFβ in mouse lung. Put plainly: Bleomycin induced lung fibrosis model: TGFβ assay. It counts as in vivo. The conditions noted are these: relative to levels induced by Bleomycin in vehicle treated animals, *p < 0.05. Here is the method:
as §1, §2
Lung tissue homogenates (500 μL) were spun at 13,000 rpm for 20 minutes at 4° C. and supernatants were collected for TGFβ estimation. The assay was performed according to the manufacturer's manual (R&D systems: Cat #SMB100B). Briefly, the lung homogenates were activated by acid activation followed by neutralization to convert latent TGFβ to active TGFβ and the total TGFβ levels in supernatants were measured. Total protein levels in the lung supernatant were also determined.

In test [4] the target is T2, Furin (108-574-Tev-Flag-His) enzyme (Homo sapiens, UniProt P09958).
T2 construct: Furin (108-574-Tev-Flag-His) enzyme was expressed and purified from CHO cells; TEV cleavage site (C); FLAG (C); His (C); made in house; host or cells: CHO cells
The test can be described thus: Furin enzyme assay. The class given is biochemical. In a few lines:
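Compounds ran as 11-point threefold dilutions (0.00017–10 μM final) against 40 pM furin, purified from CHO cells, for 2 h at room temperature. Buffer: 100 mM HEPES pH7.5 with 1 mM CaCl2 and 0.005% Triton X-100. Envision readout. Four-parameter curve gives pXC50.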

For test [5], the system named is epithelial sodium channel (ENaC). The test can be described thus: TEER assay, chronic or acute treatment, Non-CF Polarized Human Lobar Bronchial Epithelial Cells. It counts as cell-based. More on the design: RTE Before Amil / RTE After Amil: unit not given here. The conditions noted are these: for Delta RTE / RTE After Amil / RTE Before Amil: chronic treatment (overnight). Here is the method:
Primary cultures of CF delF508 or non-CF HBE cells are seeded onto permeable filter supports and grown for 12-14 days for a significant RTE to be measured for TEER assays.
When the ENaC is active under basal conditions (at least in part due to protease cleavage inside the cell or at the apical membrane), there is a finite RTE that is affected by the Na+ current flowing through ENaC heterotrimers (αβγ or δβγ).

Where [6] appears, read: acute treatment, 3 μM thru 50 μM.
The mark [7] stands for this setting: 10 mg/kg, Intra-peritoneal, Twice daily.
Setting [8] is: 10 mg/kg, Intra-peritoneal, Once daily.

T1 sequence (P09958 108-794): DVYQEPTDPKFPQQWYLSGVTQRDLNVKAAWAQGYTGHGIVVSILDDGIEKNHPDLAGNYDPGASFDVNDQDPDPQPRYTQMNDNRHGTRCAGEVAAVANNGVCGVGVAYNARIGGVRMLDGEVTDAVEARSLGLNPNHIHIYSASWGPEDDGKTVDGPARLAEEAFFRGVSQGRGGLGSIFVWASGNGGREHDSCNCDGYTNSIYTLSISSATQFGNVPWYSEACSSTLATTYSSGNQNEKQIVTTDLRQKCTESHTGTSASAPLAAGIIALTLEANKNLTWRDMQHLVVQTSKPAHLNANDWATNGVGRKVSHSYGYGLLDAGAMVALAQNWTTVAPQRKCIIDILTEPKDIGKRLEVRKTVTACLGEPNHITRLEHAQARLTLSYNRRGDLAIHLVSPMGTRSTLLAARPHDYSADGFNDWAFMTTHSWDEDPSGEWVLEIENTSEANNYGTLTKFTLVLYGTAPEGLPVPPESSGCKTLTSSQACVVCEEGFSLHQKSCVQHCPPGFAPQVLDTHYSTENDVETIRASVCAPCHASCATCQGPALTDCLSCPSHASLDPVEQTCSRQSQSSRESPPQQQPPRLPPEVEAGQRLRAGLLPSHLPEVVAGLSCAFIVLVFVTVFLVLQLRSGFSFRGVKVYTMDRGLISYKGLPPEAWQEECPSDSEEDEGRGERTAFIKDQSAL
T2 sequence (P09958 108-574): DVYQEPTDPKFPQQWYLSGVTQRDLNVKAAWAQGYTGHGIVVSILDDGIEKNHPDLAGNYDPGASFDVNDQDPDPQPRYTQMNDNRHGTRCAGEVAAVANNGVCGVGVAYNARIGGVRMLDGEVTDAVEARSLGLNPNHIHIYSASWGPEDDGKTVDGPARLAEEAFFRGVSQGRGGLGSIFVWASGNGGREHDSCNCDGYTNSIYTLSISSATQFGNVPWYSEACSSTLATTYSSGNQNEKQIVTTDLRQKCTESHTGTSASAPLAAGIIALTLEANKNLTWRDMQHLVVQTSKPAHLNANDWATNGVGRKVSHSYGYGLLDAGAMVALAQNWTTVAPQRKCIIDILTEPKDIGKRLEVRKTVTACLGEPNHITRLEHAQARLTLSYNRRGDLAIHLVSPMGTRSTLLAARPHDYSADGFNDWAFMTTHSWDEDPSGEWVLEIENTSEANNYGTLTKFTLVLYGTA

For the compound `CC(CC1CCN(Cc2cc(Oc3cnc(N4CCN(C)CC4)nc3)nc(-c3cc(Cl)cc(Cl)c3)c2)CC1)C(=O)O` (stereo in doubt) [Example 137, (R)-3-(1-((2-(3,5-dichlorophenyl)-6-((2-(4-methylpiperazin-1-yl)pyrimidin-5-yl)oxy)pyridin-4-yl)methyl)piperidin-4-yl)-2-methylpropanoic acid], the “% inhibition of hydroxyproline in lung” value in test [1] (10 mg/kg, Oral, Once daily) is 54* %. For the same compound, in test [2], the EC50 was 10 nM. In addition, the “% inhibition of total TGFβ in lung” value in test [3] (10 mg/kg, Oral, Once daily) is recorded as 81* %. Moreover, the “furin enzyme pIC50” value in test [4] was found to be 9.1.

As for `CN(C)C(=O)COC(=O)Cc1ccc(OC(=O)c2ccc(NC(=N)N)cc2)cc1` [Camostat], in test [5] (setting [6]), the “Delta RTE after Amil” value is given as “+15 ± 2” and the “Delta RTE after Volume Additions” value is recorded as “+82 ± 4”. In addition, the “inhibition of amiloride-sensitive RTE delta (remaining ENaC activity)” value in test [5] (acute treatment, tested at much higher concentrations than Example 11) is given as “more strongly”. The “effect on the amiloride-sensitive RTE delta” value in test [5] (chronic overnight treatment, 50 μM, P<0.05) is recorded as “equivalent inhibitory effect”. For the same compound, in test [5] (3 μM), the “Delta RTE” value is reported as “+172 ± 20”, the “RTE After Amil” value is recorded as 615 ± 26 and the “RTE Before Amil” value turned out to be 443 ± 6. Further, in test [5] (10 μM), the “Delta RTE” value is recorded as “+119 ± 1”, the “RTE After Amil” value was determined as 506 ± 10 and the “RTE Before Amil” value came to 387 ± 11. For the same compound, in test [5] (30 μM), the “Delta RTE” value is reported as “+163 ± 8”, the “RTE After Amil” value worked out at 635 ± 13 and the “RTE Before Amil” value is listed as 472 ± 6. In test [5] (50 μM), the “Delta RTE” value was “+98 ± 2”, the “RTE After Amil” value stood at 446 ± 3 and the “RTE Before Amil” value was 348 ± 4.

Turning to `CC(=O)NCC1CCN(Cc2cc(Oc3ccc(N4CCN(CC(=O)O)CC4)nc3)nc(-c3cc(Cl)cc(Cl)c3)c2)CC1` [Example 10, 2-(4-(5-((4-((4-(Acetamidomethyl)piperidin-1-yl)methyl)-6-(3,5-dichlorophenyl)pyridin-2-yl)oxy)pyridin-2-yl)piperazin-1-yl)acetic acid, 4 hydrochloride], in test [1] (setting [7]), the “% inhibition of hydroxyproline in lung” value came to 16%. For the same compound, the EC50 in test [2] is 126 nM. The “% inhibition of total TGFβ in lung” value in test [3] (setting [7]) was 43* %. For the same compound, the “furin enzyme pIC50” value in test [4] is 8.7.

Take `CC(=O)NCC1CCN(Cc2cc(Oc3ccc(N4CCN(CCS(C)(=O)=O)CC4)nc3)nc(-c3cc(Cl)cc(Cl)c3)c2)CC1` [Example 12, N-((1-((2-(3,5-Dichlorophenyl)-6-((6-(4-(2-(methylsulfonyl)ethyl)piperazin-1-yl)pyridin-3-yl)oxy)pyridin-4-yl)methyl)piperidin-4-yl)methyl)acetamide, 4 hydrochloride]: in test [1] (30 mg/kg, Oral, Once daily), the “% inhibition of hydroxyproline in lung” value is recorded as 45* %. Also, in test [2], the EC50 was 25.1 nM. In addition, the “% inhibition of total TGFβ in lung” value in test [3] (30 mg/kg, Oral, Once daily) was 41* %. For the same compound, in test [4], the “furin enzyme pIC50” value is on record as 8.3.

For the compound `CNC(=O)NCC1CCN(Cc2cc(Oc3ccc(N4CCN(CCC(=O)O)CC4)nc3)nc(-c3cc(Cl)cc(Cl)c3)c2)CC1` [Example 41, 3-(4-(5-((6-(3,5-Dichlorophenyl)-4-((4-((3-methylureido)methyl)piperidin-1-yl)methyl)pyridin-2-yl)oxy)pyridin-2-yl)piperazin-1-yl)propanoic acid], in test [1] (setting [8]), the “% inhibition of hydroxyproline in lung” value was 39* %. Further, the EC50 in test [2] was 25.1 nM. The “% inhibition of total TGFβ in lung” value in test [3] (setting [8]) was 67* %. In addition, the “furin enzyme pIC50” value in test [4] was 9.1.

Consider `COC(=O)NCC1CCN(Cc2cc(Oc3cnc(N4CCN(CCC(=O)O)CC4)nc3)nc(-c3cc(Cl)cc(Cl)c3)c2)CC1` [Example 62, 3-(4-(5-((6-(3,5-Dichlorophenyl)-4-1(4-(((methoxycarbonyl)amino)methyl)piperidin-1-yl)methyl)pyridin-2-yl)oxy)pyrimidin-2-yl)piperazin-1-yl)propanoic acid, 4 hydrochloride], for which, in test [1] (30 mg/kg, Oral, Once daily), the “% inhibition of hydroxyproline in lung” value is listed as −14%. Further, in test [2], the EC50 was 31.6 nM. Further, in test [3] (30 mg/kg, Oral, Once daily), the “% inhibition of total TGFβ in lung” value was found to be 7%. Also, the “furin enzyme pIC50” value in test [4] is 9.8.

Consider `CN1CCCN(c2ncc(Oc3cc(CN4CCC(CC(=O)O)CC4)cc(-c4cc(Cl)cc(Cl)c4)n3)cn2)CC1` [Example 126, 2-(1-((2-(3,5-Dichlorophenyl)-6-((2-(4-methyl-1,4-diazepan-1-yl)pyrimidin-5-yl)oxy)pyridin-4-yl)methyl)piperidin-4-yl)acetic acid], for which the “% inhibition of hydroxyproline in lung” value in test [1] (30 mg/kg, Oral, Once daily) was 36* %. Besides, the EC50 in test [2] was 6.31 nM. Moreover, in test [3] (30 mg/kg, Oral, Once daily), the “% inhibition of total TGFβ in lung” value is 34* %. The “furin enzyme pIC50” value in test [4] turned out to be 9.

Regarding `CC(=O)NCC1CCN(Cc2cc(Oc3ccc(N4CCN(CCO)CC4)nc3)nc(-c3cc(Cl)cc(Cl)c3)c2)CC1` [Example 180, N-((1-((2-(3,5-Dichlorophenyl)-6-((6-(4-(2-hydroxyethyl)piperazin-1-yl)pyridin-3-yl)oxy)pyridin-4-yl)methyl)piperidin-4-yl)methyl)acetamide], the “% inhibition of hydroxyproline in lung” value in test [1] (setting [8]) is given as 56* %. For the same compound, the EC50 in test [2] was 3.16 nM. The “% inhibition of total TGFβ in lung” value in test [3] (setting [8]) is on record as 60* %. Besides, in test [4], the “furin enzyme pIC50” value came to 9.1.

Take `CN1CCN(c2ncc(Oc3cc(CN4CCC(CC(=O)O)CC4)cc(-c4cc(Cl)cc(Cl)c4)n3)cn2)CC1` [Example 207, 2-(1-((2-(3,5-Dichlorophenyl)-6-((2-(4-methylpiperazin-1-yl)pyrimidin-5-yl)oxy)pyridin-4-yl)methyl)piperidin-4-yl)acetic acid]: in test [1] (10 mg/kg, Oral, Once daily), the “% inhibition of hydroxyproline in lung” value is 46* %. Moreover, the “% inhibition of total TGFβ in lung” value in test [3] (10 mg/kg, Oral, Once daily) is 66* %.

Turning to `CN1CCCN(c2ncc(Oc3cc(CN4CC[C@@H]5[C@H](CC4)[C@H]5C(=O)O)cc(-c4cc(Cl)cc(Cl)c4)n3)cn2)CC1` [Example 397, (1R,7S,8r)-4-((2-(3,5-Dichlorophenyl)-6-((2-(4-methyl-1,4-diazepan-1-yl)pyrimidin-5-yl)oxy)pyridin-4-yl)methyl)-4-azabicyclo[5.1.0]octane-8-carboxylic acid, 4 hydrochloride], the EC50 in test [2] was 25.1 nM. Further, the “furin enzyme pIC50” value in test [4] was 9.

Regarding `CN1C2CCC1CN(c1ncc(Oc3cc(CN4CCC(CC(=O)O)CC4)cc(-c4cc(Cl)cc(Cl)c4)n3)cn1)C2` [Example 398, 2-(1-((2-(3,5-dichlorophenyl)-6-((2-(8-methyl-3,8-diazabicyclo[3.2.1]octan-3-yl)pyrimidin-5-yl)oxy)pyridin-4-yl)methyl)piperidin-4-yl)acetic acid], the EC50 in test [2] is 6.31 nM. In test [4], the “furin enzyme pIC50” value came out at 8.9.

Turning to `O=C(O)CC1CCN(Cc2cc(Oc3cnc(N4CCNCC(F)C4)nc3)nc(-c3cc(Cl)cc(Cl)c3)c2)CC1` (stereo not shown) [Example 399, 2-(1-((2-(3,5-dichlorophenyl)-6-((2-(6-fluoro-1,4-diazepan-1-yl)pyrimidin-5-yl)oxy)pyridin-4-yl)methyl)piperidin-4-yl)acetic acid], in test [2], the EC50 is 39.8 nM. The “furin enzyme pIC50” value in test [4] was 8.8.
